Experimental data as given in article PMC9516332 (Frontiers in Oncology, 2022).
Like-named read-outs stand apart in the source and are kept apart here.

Tested on: 134 cancer cell lines
Test: Cell viability assay (ATPlite, 72 hours), IC50 on cancer cell line panel

CCc1cc2c(cc1N1CCC(N3CCOCC3)CC1)C(C)(C)c1[nH]c3cc(C#N)ccc3c1C2=O [alectinib]
IC50 (HEC-6, read-out: IC50 in cell proliferation assay): > 10 µM
IC50 (Homo sapiens, 769-P, read-out: IC50 in cell proliferation assay): 9.15 µM
IC50 (Homo sapiens, 786-0, read-out: IC50 in cell proliferation assay): > 10 µM
IC50 (Homo sapiens, A 172, read-out: IC50 in cell proliferation assay): > 10 µM
IC50 (Homo sapiens, A204, read-out: IC50 in cell proliferation assay): > 10 µM
IC50 (Homo sapiens, A498, read-out: IC50 in cell proliferation assay): > 10 µM
IC50 (Homo sapiens, A549, read-out: IC50 in cell proliferation assay): > 10 µM
IC50 (Homo sapiens, A704, read-out: IC50 in cell proliferation assay): > 10 µM
IC50 (Homo sapiens, A-375, read-out: IC50 in cell proliferation assay): > 10 µM
IC50 (Homo sapiens, A-427, read-out: IC50 in cell proliferation assay): > 10 µM
IC50 (Homo sapiens, ACHN, read-out: IC50 in cell proliferation assay): 3.52 µM
IC50 (Homo sapiens, AN3-CA, read-out: IC50 in cell proliferation assay): > 10 µM
IC50 (Homo sapiens, ASPC1, read-out: IC50 in cell proliferation assay): > 10 µM
IC50 (Homo sapiens, AU565, read-out: IC50 in cell proliferation assay): > 10 µM
IC50 (Homo sapiens, BT-20, read-out: IC50 in cell proliferation assay): > 10 µM
IC50 (Homo sapiens, BT-474, read-out: IC50 in cell proliferation assay): > 10 µM
IC50 (Homo sapiens, BT-549, read-out: IC50 in cell proliferation assay): 2.71 µM
IC50 (Homo sapiens, BXPC-3, read-out: IC50 in cell proliferation assay): > 10 µM
IC50 (Homo sapiens, C-33-A, read-out: IC50 in cell proliferation assay): 1.99 µM
IC50 (Homo sapiens, CAL-27, read-out: IC50 in cell proliferation assay): 1.18 µM
IC50 (Homo sapiens, CCF-STTG1, read-out: IC50 in cell proliferation assay): 3.02 µM
IC50 (Homo sapiens, CCRF-CEM, read-out: IC50 in cell proliferation assay): > 10 µM
IC50 (Homo sapiens, COLO 205, read-out: IC50 in cell proliferation assay): > 10 µM
IC50 (Homo sapiens, COLO-829, read-out: IC50 in cell proliferation assay): > 10 µM
IC50 (Homo sapiens, DLD-1, read-out: IC50 in cell proliferation assay): > 10 µM
IC50 (Homo sapiens, DU-145, read-out: IC50 in cell proliferation assay): > 10 µM
IC50 (Homo sapiens, DU-4475, read-out: IC50 in cell proliferation assay): > 10 µM
IC50 (Homo sapiens, Daoy, read-out: IC50 in cell proliferation assay): 3.45 µM
IC50 (Homo sapiens, DoTc2-4510, read-out: IC50 in cell proliferation assay): 0.477 µM
IC50 (Homo sapiens, EOL1, read-out: IC50 in cell proliferation assay): 0.193 µM
IC50 (Homo sapiens, FaDu, read-out: IC50 in cell proliferation assay): > 10 µM
IC50 (Homo sapiens, G-361, read-out: IC50 in cell proliferation assay): > 10 µM
IC50 (Homo sapiens, HCC827, read-out: IC50 in cell proliferation assay): 1.59 µM
IC50 (Homo sapiens, HCC4006, read-out: IC50 in cell proliferation assay): 1.33 µM
IC50 (Homo sapiens, HCT-15, read-out: IC50 in cell proliferation assay): > 10 µM
IC50 (Homo sapiens, HCT-116, read-out: IC50 in cell proliferation assay): > 10 µM
IC50 (Homo sapiens, HEC-1, read-out: IC50 in cell proliferation assay): 1.32 µM
IC50 (Homo sapiens, HEC-1B, read-out: IC50 in cell proliferation assay): > 10 µM
IC50 (Homo sapiens, HL-60, read-out: IC50 in cell proliferation assay): > 10 µM
IC50 (Homo sapiens, HT, read-out: IC50 in cell proliferation assay): > 10 µM
IC50 (Homo sapiens, HT-1080, read-out: IC50 in cell proliferation assay): 7.55 µM
IC50 (Homo sapiens, Hs746T, read-out: IC50 in cell proliferation assay): > 10 µM
IC50 (Homo sapiens, Hs-578T, read-out: IC50 in cell proliferation assay): 4.92 µM
IC50 (Homo sapiens, HuTu80, read-out: IC50 in cell proliferation assay): > 10 µM
IC50 (Homo sapiens, J82, read-out: IC50 in cell proliferation assay): > 10 µM
IC50 (Homo sapiens, Jurkat E6.1, read-out: IC50 in cell proliferation assay): > 10 µM
IC50 (Homo sapiens, K562, read-out: IC50 in cell proliferation assay): > 10 µM
IC50 (Homo sapiens, KATO III, read-out: IC50 in cell proliferation assay): > 10 µM
IC50 (Homo sapiens, KG-1, read-out: IC50 in cell proliferation assay): 0.442 µM
IC50 (Homo sapiens, KLE, read-out: IC50 in cell proliferation assay): > 10 µM
IC50 (Homo sapiens, KMS-11, read-out: IC50 in cell proliferation assay): > 10 µM
IC50 (Homo sapiens, KU812, read-out: IC50 in cell proliferation assay): > 10 µM
IC50 (Homo sapiens, Kasumi 1, read-out: IC50 in cell proliferation assay): 1.53 µM
IC50 (Homo sapiens, LC-2-ad, read-out: IC50 in cell proliferation assay): 1.11 µM
IC50 (Homo sapiens, LNCaP-Clone-FGC, read-out: IC50 in cell proliferation assay): > 10 µM
IC50 (Homo sapiens, LS174T, read-out: IC50 in cell proliferation assay): > 10 µM
IC50 (Homo sapiens, LS-411N, read-out: IC50 in cell proliferation assay): > 10 µM
IC50 (Homo sapiens, LoVo, read-out: IC50 in cell proliferation assay): > 10 µM
IC50 (Homo sapiens, MCF7, read-out: IC50 in cell proliferation assay): > 10 µM
IC50 (Homo sapiens, MDA-MB-231, read-out: IC50 in cell proliferation assay): > 10 µM
